Assay results reported in article PMC12731536, “Sc(III) Complexes of Pyclen Derivative Ligands as Probes for Hypoxia: Synthesis, Chemical Characterization, ^44Sc‐Radiolabeling, and Preclinical Assessment” (Chemistry (Weinheim an Der Bergstrasse, Germany), 2025).
Like-named read-outs stand apart in the source and are kept apart here. Each block holds one molecule with its values, some of them ahead of it.

Experiments:
[1] = design: method as in PMID 24838869; details: dissociation of [Sc(DOTA)]; cited from earlier work
[2] = cited from earlier work
[3] = Fluoride binding of [Sc(PC2AM^nBu)]^+ (ternary complex stability), 19F NMR titration; type: physicochemical; details: for log K ScLF: stability constant of the ternary fluoride complex, 19F NMR, pH = 5.2, I = 0.15 M NaCl, 25 °C; for K= [Sc(L)F]/[Sc(L)]*[F^-] / log K: titration point: complex 0.0050 M, pH 5.20, I = 0.15 M NaCl, 298 K
Text: Sc(III) is a typical “hard” cation, forming very stable complexes with fluoride anion.^[ [51], [52] ^] […] The formation of the ternary [Sc(PC2AM^nBu)(F)] complex can be followed by […], as two sets of signals (Δδ ∼ 20 Hz) indicate a slow exchange regime on the […] time scale (Figure S16). Measuring the intensities of the free and bound fluoride signals, the stability constant (Eqn. 6) of the [Sc(PC2AM^nBu)(F)] complex (Eqn. 5) can be calculated (Table S1).
(5) [Sc(PC2AM^nBu)]^++F^−⇌[Sc(PC2AM^nBu)(F)] (6) KScLF=ScPC2AM^nBuF/[ScPC2AM^nBu^+]F^−
Table S1. Summary of data used for the calculation of the stability constant, log K[Sc(PC2AM^nBu)(F)] by titration of 0.005M [Sc(PC2AM^nBu)]^+ parent complex with different amounts of F^- (0.005 - 0.01 M concentration range) followed by 376.4 MHz ^19F NMR (I = 0.15 M NaCl, c Sc(PC2AM^nBu) = 5 mM, pH=5.20, T= 298 K).

[4] = Fluoride exchange kinetics, 19F NMR selective magnetization transfer; type: physicochemical; details: complex 5 mM, cF = 10 mM, 14% uncertainty; for k obs ^AB (fluoride exchange, complex site A to free F^− site B): 298 K
Text: Considering ^18F‐labeling and PET application of the [Sc(L)(F)]‐type mixed complexes, one has to check the inertness of the mixed complex against F‐exchange:
(7) [Sc(PC2AM^nBu)F]+∗F^−⇌[Sc(PC2AM^nBu)∗F]+F^− where * is used to indicate typographically the exchanging anion.
The ^19F NMR signal of the mixed complex is somewhat broadened (ν ½ = 150 Hz) due to the relaxation effect of the quadrupole ^45Sc (I = 7/2) nuclei, while the free fluoride is narrow (ν ½ = 4.5 Hz), indicating the absence of chemical exchange on the T 2‐time scale (Figure S24). […] (site A) and free F^− (site B) with k obs ^AB value of 0.6 s^−1 (14% uncertainty), indicating remarkable inertness of the monodentate fluoride (Figure S25). Very recently, 3–4 orders of magnitude larger fluoride exchange rate constants have been published for two Y(III) complexes formed with open‐chain ligands, [Y(EGTA)(F)]^2− and [Y(OBETA)(H2O)(F)]^2−.^[ [56] ^] […] At the same time, the k obs value obtained for the [Sc(OPC2A)(F)] complex (k obs = 16.5 s^−1) is lower by an order of magnitude than that of [Yb(DTMA)(F)]^2+ [ [45] ^] which is likely to be rationalized by the more rigid environment around the M(III)‐F entity.
Figure S25. Selective magnetization transfer (MT) experiment (intensity vs. delay time) curves for [Sc(PC2AAM^nBu)(F)] (c[Sc(PC2AAMnBu)(F)] = 5 mM, cF = 10 mM, pH = 5.50, 298 K). The symbols show the measured intensities: red triangle [Sc(PC2AAM^nBu)(F)] (site A); blue square, free F^- (site B), the curves represent the fitted data (k^obsBA = 1.2 s^-1 (14% uncertainty), k^obsAB = 0.60 s^-1 (14% uncertainty), T1,A= 0.211 s; T1,B = 1.28 s (fixed)).

SMILES: O=C(O)CN1CCN(CC(=O)O)CCN(CC(=O)O)CCN(CC(=O)O)CC1 [DOTA]
k 0 (spontaneous dissociation) [1]: 6e-06 s⁻¹
k 1 (acid‐assisted dissociation) [1]: 4.3e-06 M⁻¹ s⁻¹

SMILES: F.O=C([O-])CN(CCN(CC(=O)[O-])CC(=O)O)CC(=O)[O-].[Al+3] [[Al(EDTA)(F)]^2−]
k obs (fluoride exchange) ([2]; estimate, no magnetization effect in MT experiment): greater than or equal to 0.2 s^−1

SMILES: O=C([O-])CN1CCOCCN(CC(=O)[O-])Cc2cccc(n2)C1.[F-].[Sc+3] [[Sc(OPC2A)(F)]]
k obs (fluoride exchange) ([2]; literature value): 16.5 s⁻¹

log K ScLF [3]: 2.5(2)
log K ScLF ([3]; listed as [Sc(PC2AMnBu)(F)]): 2.5
K= [Sc(L)F]/[Sc(L)]*[F^-] ([3]; F^- 0.0050 M): 356.65
log K ([3]; F^- 0.0050 M): 2.55
K= [Sc(L)F]/[Sc(L)]*[F^-] ([3]; F^- 0.0060 M): 508.89
log K ([3]; F^- 0.0060 M): 2.71
K= [Sc(L)F]/[Sc(L)]*[F^-] ([3]; F^- 0.0070 M): 342.86
log K ([3]; F^- 0.0070 M): 2.54
K= [Sc(L)F]/[Sc(L)]*[F^-] ([3]; F^- 0.0080 M): 222.09
log K ([3]; F^- 0.0080 M): 2.35
K= [Sc(L)F]/[Sc(L)]*[F^-] ([3]; F^- 0.0100 M): 150.79
log K ([3]; F^- 0.0100 M): 2.18
SMILES: CCCCNC(=O)CN1CCN(CC(=O)[O-])Cc2cccc(n2)CN(CC(=O)[O-])CC1.[F-].[Sc+3] [[Sc(PC2AM^nBu)(F)]]
k obs ^AB (fluoride exchange, complex site A to free F^− site B) [4]: 0.6 s⁻¹
k obs ^AB (fluoride exchange, complex site A to free F^− site B) ([4]; listed as [Sc(PC2AAM^nBu)(F)]): 0.60 s⁻¹
k^obsBA (fluoride exchange, free F^- site B to complex site A) ([4]; pH = 5.50, 298 K): 1.2 s⁻¹

SMILES: CNC(=O)CN1CCN(CC(=O)NC)CCN(CC(=O)NC)CCN(CC(=O)NC)CC1.[F-].[Yb+3] [[Yb(DTMA)(F)]^2+]
k obs (fluoride exchange) ([2]; literature value): 216 s⁻¹
